Laboratory results from patent US6031073A, “Cyclic polypeptides comprising a thioether linkage and methods for their preparation” (La Jolla Pharmaceutical Company, priority 1997, dated 2000).
Like-named read-outs stand apart in the source and are kept apart here. Numbered stars: 1 amine (or outer) side, 2 acyl side, 3 side chain; on linkers, the order of the positions; unused ones are H or OH. Bridge positions count the residues as written; N and C are the ends. Square brackets hold non-standard residues; d marks the D form. Peptide text beside a SMILES is read from it. Abu(4-yl) = O=C([C@H](CC[*:3])N[*:1])[*:2]

Columns and labels:
[1] = thioether bond
[2] = biological target: anticardiolipin antibody (serum of patient ACA-6501); assay: competitive ELISA, binding of patient ACA-6501 serum to cardiolipin/β2-GPI coated plate; design: species or system human; conditions: amount of peptide that inhibited the human serum's binding by 50%; serum of patient ACA-6501 (GPL score 1500)
Experimental: The binding affinities of a number of the thioether cyclic polypeptides of the present invention to anticardiolipin antibody were determined by a competitive ELISA (i.e., enzyme-linked immunosorbent assay) and compared with binding affinities of the corresponding disulfide cyclic polypeptides (e.g., 3G3, 2G3, and G3).
Of 96 wells of a flat-bottom Immulon I microtiter plate (Dynatech Labs, Alexandria, Va.), 94 wells were coated with […] cardiolipin per well in 30 mL, of ethanol. The remaining two wells were used as controls and each received 30 mL, of ethanol. After overnight evaporation at 4° C., the plate was blocked for 2 hours at room temperature with 200 mL of 5% (w/v) fish gelatin in phosphate buffered saline (i.e., PBS, 0.15 M NaCl and 0.01 M Na2 HPO4 at pH 7.2). The plate was washed five times in Tris buffered saline (i.e., TBS, 0.15 M NaCl and 0.05 M Tris-HCl at pH 8.5). Then, β2 -glycoprotein I (i.e., β2 -GPI) was added as […] of 2.3% (v/v) IgG-depleted human serum (Sigma Chemical Co.) and incubated for 2 hours at room temperature.
During this incubation, peptide solutions (around 2 mg/mL) were prepared by dissolving thioether cyclic peptides in 3% fish gelatin in TBS. The serums of patient ACA-6501, who has a GPL (i.e., IgG Phospholipid) score of 1500, and patient ACA-6701, who has a GPL score of 102, were diluted about 40-fold in 3% fish gelatin in TBS-PBS (1:1). Variable amounts of each of peptides were combined with 22 mL of each of the diluted human serums and then made up to the final volume of 220 mL with 3% fish gelatin in TBS-PBS (1:1). For each peptide, at least four peptide concentrations were employed and each data point was determined in duplicate.
After 5 washes with TFBS, 100 mL of the peptide/human serum solution was added and the microplate was agitated at 40 rpm in an orbital shaker (American Scientific, Rotator V) for one hour at room temperature. The plate was washed extensively with TBS (5 times) and 100 mL of diluted (1/1000) alkaline phosphatase-conjugated goat anti-human IgG (Zymed, South San Francisco, Calif.) in 0.5% (w/v) BSA-TBS was added to each well (i.e., bovine serum albumin, BSA). The plate was then incubated for one hour at room temperature followed by addition of […]/well of PPMP solution (3 g/L phenolphthalein monophosphate plus 26.7 g/L 2-amino-2-methyl-1-propanol in water). The plate was allowed to develop at room temperature for 21 min and the reaction was stopped by adding 50 mL of 0.2 M Na2 HPO4 (Mallinckrodt) to each well. Blanks consisted of protein-coated wells that received similar treatment except human serum was not added to these wells. The plate was read at 550 nm using a microplate reader (Bio-Tek Instruments, Model EL 311).
Absorbance vs. amount of peptide added was plotted using Graph Pad Prism (Graph Pad Software, Inc.). The amount of peptide that inhibited the human serum's binding by 50%, known as IC50, was calculated from the graph at the intersection of half-maximal absorbance with amount of peptide added.

[3] = from H-Gly-Pro-Ala(3-Cl)-Leu-Gly-Val-Leu-Gly-Lys-Leu-Hcy-Pro-Gly-OH, 29-membered ring, Na2CO3 (1 mg/mL, pH 10.5), ACN/H2O 1:1, 25.0 °C

For `CC(C)C[C@@H]1NC(=O)[C@H](CCCCN)NC(=O)CNC(=O)[C@H](CC(C)C)NC(=O)[C@H](C(C)C)NC(=O)CNC(=O)[C@H](CC(C)C)NC(=O)[C@@H](N)CCSCC[C@@H](C(N)=O)NC1=O` [G3-EETE], the ring closure, yield after HPLC ([1]; from H-Abu(4-Cl)-Leu-Gly-Val-Leu-Gly-Lys-Leu-Hcy-NH2, 30-membered ring, Na2CO3 (1 mg/mL, pH 10.5), ACN/H2O 1:1, 25.0 °C) was 48%.
Work on `CC(C)C[C@@H]1NC(=O)[C@@H](NC(=O)[C@@H]2CCCN2C(=O)CNC(=O)[C@H](C)N)CCSC[C@@H](C(=O)N2CCC[C@H]2C(=O)NCC(=O)O)NC(=O)[C@H](CC(C)C)NC(=O)[C@H](CCCCN)NC(=O)CNC(=O)[C@H](CC(C)C)NC(=O)[C@H](C(C)C)NC(=O)CNC1=O` [3G3-EMTE] (H-AGP[Abu(4-yl)]LGVLGKLCPG-OH; thioether 4-12; N-terminus and C-terminus assumed) yielded an IC50 [2] of about 1120 µM.
In the case of `CC(C)C[C@@H]1NC(=O)[C@@H](NC(=O)[C@@H]2CCCN2C(=O)CN)CCSCC[C@@H](C(=O)N2CCC[C@H]2C(=O)NCC(=O)O)NC(=O)[C@H](CC(C)C)NC(=O)[C@H](CCCCN)NC(=O)CNC(=O)[C@H](CC(C)C)NC(=O)[C@H](C(C)C)NC(=O)CNC1=O` [2G3-EETE], the ring closure, yield after HPLC ([1]; from H-Gly-Pro-Abu(4-Cl)-Leu-Gly-Val-Leu-Gly-Lys-Leu-Hcy-Pro-Gly-OH, 30-membered ring, Na2CO3 (1 mg/mL, pH 10.5), ACN/H2O 1:1, 25.0 °C) is reported as 75%.
Compound `CC(C)C[C@@H]1NC(=O)[C@H](CCCCN)NC(=O)CNC(=O)[C@H](CC(C)C)NC(=O)[C@H](C(C)C)NC(=O)CNC(=O)[C@H](CC(C)C)NC(=O)[C@@H](N)CSCC[C@@H](C(N)=O)NC1=O` [G3-METE] has a ring closure, yield after HPLC ([1]; from H-Ala(3-Cl)-Leu-Gly-Val-Leu-Gly-Lys-Leu-Hcy-NH2, 29-membered ring, Na2CO3 (1 mg/mL, pH 10.5), ACN/H2O 1:1, 25.0 °C) of 52%.
Work on `CC(C)C[C@@H]1NC(=O)[C@@H](NC(=O)[C@@H]2CCCN2C(=O)CNC(=O)[C@H](C)NC(=O)OCC2c3ccccc3-c3ccccc32)CCSC[C@@H](C(=O)N2CCC[C@H]2C(=O)NCC(=O)O)NC(=O)[C@H](CC(C)C)NC(=O)[C@H](CCCCN)NC(=O)CNC(=O)[C@H](CC(C)C)NC(=O)[C@H](C(C)C)NC(=O)CNC1=O` [3G3-EMTE] yielded a ring closure, yield after HPLC ([1]; from Fmoc-Ala-Gly-Pro-Abu(4-Cl)-Leu-Gly-Val-Leu-Gly-Lys-Leu-Cys-Pro-Gly-OH, 29-membered ring, Na2CO3 (1 mg/mL, pH 10.5), ACN/H2O 1:1, 0.63 mM, 25.0 °C, 2 steps) of 33%.
Work on `CC(C)C[C@@H]1NC(=O)[C@@H](NC(=O)[C@@H]2CCCN2C(=O)CNC(=O)[C@H](C)N)CSC[C@@H](C(=O)N2CCC[C@H]2C(=O)NCC(=O)O)NC(=O)[C@H](CC(C)C)NC(=O)[C@H](CCCCN)NC(=O)CNC(=O)[C@H](CC(C)C)NC(=O)[C@H](C(C)C)NC(=O)CNC1=O` [3G3-MMTE] yielded a ring closure, yield after HPLC ([1]; from H-Ala-Gly-Pro-Ala(3-Cl)-Leu-Gly-Val-Leu-Gly-Lys-Leu-Cys-Pro-Gly-OH, 28-membered ring, Na2CO3 (1 mg/mL, pH 10.5), ACN/H2O 1:1, 25.0 °C) of 89%.
In the case of `CC(C)C[C@@H]1NC(=O)[C@@H](NC(=O)[C@@H]2CCCN2C(=O)CN)CCSC[C@@H](C(=O)N2CCC[C@H]2C(=O)NCC(=O)O)NC(=O)[C@H](CC(C)C)NC(=O)[C@H](CCCCN)NC(=O)CNC(=O)[C@H](CC(C)C)NC(=O)[C@H](C(C)C)NC(=O)CNC1=O` [2G3-EMTE], the ring closure, yield after HPLC ([1]; from H-Gly-Pro-Abu(4-Cl)-Leu-Gly-Val-Leu-Gly-Lys-Leu-Cys-Pro-Gly-OH, 29-membered ring, Na2CO3 (1 mg/mL, pH 10.5), ACN/H2O 1:1, 25.0 °C) is reported as 84%.
In the case of `CC(C)C[C@@H]1NC(=O)[C@@H](NC(=O)[C@@H]2CCCN2C(=O)CN)CSCC[C@@H](C(=O)N2CCC[C@H]2C(=O)NCC(=O)O)NC(=O)[C@H](CC(C)C)NC(=O)[C@H](CCCCN)NC(=O)CNC(=O)[C@H](CC(C)C)NC(=O)[C@H](C(C)C)NC(=O)CNC1=O` [2G3-METE], the ring closure, yield after HPLC ([1]; from H-Gly-Pro-Cys-Leu-Gly-Val-Leu-Gly-Lys-Leu-Abu(4-Cl)-Pro-Gly-OH, 29-membered ring, Na2CO3 (1 mg/mL, pH 10.5), ACN/H2O 1:1, 25.0 °C) is reported as 36%.
`CC(C)C[C@@H]1NC(=O)[C@@H](NC(=O)[C@@H]2CCCN2C(=O)CN)CSCC[C@@H](C(=O)N2CCC[C@H]2C(=O)NCC(=O)O)NC(=O)[C@H](CC(C)C)NC(=O)[C@H](CCCCN)NC(=O)CNC(=O)[C@H](CC(C)C)NC(=O)[C@H](C(C)C)NC(=O)CNC1=O` [d-2G3-METE] showed a ring closure, yield after HPLC [1, 3] of 16%.
`CC(C)C[C@@H]1NC(=O)[C@@H](NC(=O)[C@@H]2CCCN2C(=O)CNC(=O)[C@H](C)N)CCSC[C@@H](C(=O)N2CCC[C@H]2C(=O)NCC(=O)O)NC(=O)[C@H](CC(C)C)NC(=O)[C@H](CCCCN)NC(=O)CNC(=O)[C@H](CC(C)C)NC(=O)[C@H](C(C)C)NC(=O)CNC1=O` [3G3-EMTE] showed a ring closure, yield after HPLC ([1]; from H-Ala-Gly-Pro-Abu(4-Cl)-Leu-Gly-Val-Leu-Gly-Lys-Leu-Cys-Pro-Gly-OH, 29-membered ring, Na2CO3 (1 mg/mL, pH 10.5), ACN/H2O 1:1, 0.71 mM, 25.0 °C) of 94%.
For `CC(C)C[C@@H]1NC(=O)[C@@H](NC(=O)[C@@H]2CCCN2C(=O)CNC(=O)[C@H](C)NC(=O)OCC2c3ccccc3-c3ccccc32)CCSC[C@@H](C(=O)N2CCC[C@H]2C(=O)NCC(=O)O)NC(=O)[C@H](CC(C)C)NC(=O)[C@H](CCCCN)NC(=O)CNC(=O)[C@H](CC(C)C)NC(=O)[C@H](C(C)C)NC(=O)CNC1=O` [N^α -Fmoc-3G3-EMTE], the ring closure, yield after HPLC ([1]; from Fmoc-Ala-Gly-Pro-Abu(4-Cl)-Leu-Gly-Val-Leu-Gly-Lys-Leu-Cys-Pro-Gly-OH, 29-membered ring, Na2CO3 (1 mg/mL, pH 10.5), ACN/H2O 1:1, 0.63 mM, 25.0 °C) was 19%.
`CC(C)C[C@@H]1NC(=O)[C@@H](NC(=O)[C@@H]2CCCN2C(=O)CN)CSCC[C@@H](C(=O)N2CCC[C@H]2C(=O)NCC(=O)O)NC(=O)[C@H](CC(C)C)NC(=O)[C@H](CCCCN)NC(=O)CNC(=O)[C@H](CC(C)C)NC(=O)[C@H](C(C)C)NC(=O)CNC1=O` [l-2G3-METE] showed a ring closure, yield after HPLC [1, 3] of 29%.
Work on `CC(C)C[C@@H]1NC(=O)[C@H](CCCCN)NC(=O)CNC(=O)[C@H](CC(C)C)NC(=O)[C@H](C(C)C)NC(=O)CNC(=O)[C@H](CC(C)C)NC(=O)[C@@H](N)CSC[C@@H](C(N)=O)NC1=O` [G3-MMTE] yielded a ring closure, yield after HPLC ([1]; from H-Ala(3-Cl)-Leu-Gly-Val-Leu-Gly-Lys-Leu-Cys-NH2, 28-membered ring, Na2CO3 (1 mg/mL, pH 10.5), ACN/H2O 1:1, 25.0 °C) of 49%.
For `CC(C)C[C@@H]1NC(=O)[C@@H](NC(=O)[C@@H]2CCCN2C(=O)CN)CSC[C@@H](C(=O)N2CCC[C@H]2C(=O)NCC(=O)O)NC(=O)[C@H](CC(C)C)NC(=O)[C@H](CCCCN)NC(=O)CNC(=O)[C@H](CC(C)C)NC(=O)[C@H](C(C)C)NC(=O)CNC1=O` [2G3-MMTE], the ring closure, yield after HPLC ([1]; from H-Gly-Pro-Ala(3-Cl)-Leu-Gly-Val-Leu-Gly-Lys-Leu-Cys-Pro-Gly-OH, 28-membered ring, Na2CO3 (1 mg/mL, pH 10.5), ACN/H2O 1:1, 25.0 °C) was 87%.
`CC(C)C[C@@H]1NC(=O)[C@H](CCCCN)NC(=O)CNC(=O)[C@H](CC(C)C)NC(=O)[C@H](C(C)C)NC(=O)CNC(=O)[C@H](CC(C)C)NC(=O)[C@@H](N)CCSC[C@@H](C(N)=O)NC1=O` [G3-EMTE] showed a ring closure, yield after HPLC ([1]; from H-Abu(4-Cl)-Leu-Gly-Val-Leu-Gly-Lys-Leu-Cys-NH2, 29-membered ring, Na2CO3 (1 mg/mL, pH 10.5), ACN/H2O 1:1, 25.0 °C) of 51%.
For `CC[C@H](C)[C@@H]1NC(=O)[C@H](CC(C)C)NC(=O)[C@@H](NC(=O)[C@@H]2CCCN2C(=O)CN)CSC[C@@H](C(N)=O)NC(=O)[C@H](CCCNC(=N)N)NC(=O)[C@H](CC(=O)O)NC(=O)[C@@H]2CCCN2C(=O)[C@H](C)NC(=O)[C@H](CC(C)C)NC1=O` [CB10-MMTE], the ring closure, yield after HPLC ([1]; from H-Gly-Pro-Ala(3-Br)-Leu-Ile-Leu-Ala-Pro-Asp-Arg-Cys-NH2, 28-membered ring, Na2CO3 (pH 10.5), H2O, 0.15 mM) was 27%.
